Results taken from US20240156698A1, “BIOCIDE COMPOSITIONS AND USES THEREOF” (PHARMOTECH SA, priority 2021, published 2024).

Columns and labels:
[1] = Skin absorption, Franz diffusion cells with dermatomed skin explants; type: in vitro ADME
Method: The transdermal absorption tests are carried out using a modified methodology of Franz diffusion cells, in which a semi-permeable membrane is used, such as reconstructed skin or skin explants. The membrane is located between the (i) donor and (ii) receptor compartments with the stratum corneum facing upward. The product is applied to the exposed stratum corneum in the donor compartment. Under the membrane, the receiving chamber contains a solution that simulates physiological conditions and where the tested substances are highly soluble.
After the product is delivered to the surface of the skin, samples are taken from the receptor compartment at predetermined times to determine the amount of substance accumulated in the receptor compartment as a function of time. In addition, at the end of the test, the extraction of the substance that has been retained in the skin is carried out. For the quantification of all the samples obtained, a suitable analytical method is necessary for each substance investigated. The skin explants were dermatomed (the dermatome device allows to cut skin layers of the skin at a determined thickness) at 200 μm thickness and placed on Franz cells, the receptor compartment was filled with PBS solution, used to simulate the physiological fluid and allowed to equilibrate for at least 30 minutes. Then, receptor solution was added into the donor compartment and the integrity of the skin was determined. After removing the solution and drying the donor, the composition of the invention 3 μl/0.38 cm2 (7.9 uL/cm2) was administered into the donor compartment.
Samples from the receptor compartment were taken at predetermined times to obtain the amount of active permeated. Said samples were filtered on 0.2 μm pore size cellulose acetate filters and analyzed by HPLC. The sample volume taken was replaced with fresh receptor solution. After taking the last sample from the receptor compartment, a first wash of the skin surface was performed with PBS, then, the Franz cells were disassembled.
The skin was carefully dried and the stratum corneum was removed by tape stripping. Tapes were put in 2 mL of extraction medium for at least 2 hours. The skin diffusion area was cut into small pieces and placed in extraction liquid under continuous stirring for 1 hour. After filtering the samples obtained, they were analyzed by HPLC to obtain the amount of substance retained on the skin.

[2] = target: CB2 receptors (Homo sapiens, UniProt P34972); settings: compared with THC; cited from earlier work
[3] = 2 hours after application of the composition to the skin
[4] = composition of the invention 7.9 uL/cm2 applied to skin explant, Franz cell

CB2 receptors, sequence (P34972 whole entry): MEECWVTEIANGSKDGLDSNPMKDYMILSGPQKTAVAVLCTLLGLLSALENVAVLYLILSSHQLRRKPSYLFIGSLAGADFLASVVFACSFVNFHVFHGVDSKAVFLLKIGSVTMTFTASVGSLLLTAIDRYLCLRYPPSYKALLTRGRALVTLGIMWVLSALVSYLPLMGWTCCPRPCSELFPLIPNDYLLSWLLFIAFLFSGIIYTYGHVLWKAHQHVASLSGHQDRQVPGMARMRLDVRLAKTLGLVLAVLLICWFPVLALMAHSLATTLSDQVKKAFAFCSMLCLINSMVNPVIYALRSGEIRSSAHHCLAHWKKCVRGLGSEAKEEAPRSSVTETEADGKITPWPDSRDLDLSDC

C=C(C)[C@@H]1CCC(C)=C[C@H]1c1c(O)cc(CCCCC)cc1O [CBD, 2-[(1R,6R)-6-isopropenyl-3-methylcyclohex-2-en-1-yl]-5-pentylbenzene-1,3-diol]
Permeation of CBD (receptor compartment) ([1]; 1 hour after application of the composition to the skin): No permeation | CBD in the stratum corneum (tape stripping) [1, 3]: No CBD was found | Permeation of CBD (receptor compartment) [1, 3]: No permeation | CBD absorbed in the skin [1, 4]: 2.38±1.52 μg CBD/cm^2 | CBD absorbed in the skin as share of the CBD applied on the top of the skin [1, 4]: 15.85% | Affinity for CB2 receptors [2]: very low affinity
